# Results from PMC5218480 (PLoS ONE, 2017).
# Test system: MV-4-11 cells
# Test: Gene expression microarray analysis (Affymetrix PrimeView) and GSEA
# Assay type: cell-based, human
# Parameters: RFU PODN (11730768_x_at) / Fold change /veh PODN (11730768_x_at) / RFU LINC00158 (11744669_a_at) / Fold change /veh LINC00158 (11744669_a_at) / RFU DUSP10 (11751237_a_at) / Fold change /veh DUSP10 (11751237_a_at) / RFU ID3 (11757404_x_at) / Fold change /veh ID3 (11757404_x_at) / RFU PLEKHG5 (11737974_s_at) / Fold change /veh PLEKHG5 (11737974_s_at) / RFU LRRC4B (11730491_at) / Fold change /veh LRRC4B (11730491_at) / RFU GIMAP4 (11747438_a_at) / Fold change /veh GIMAP4 (11747438_a_at) / RFU KRT8 (11758183_x_at) / Fold change /veh KRT8 (11758183_x_at) / RFU CNN1 (11734310_a_at) / Fold change /veh CNN1 (11734310_a_at) / RFU VPS37D (11726825_at) / Fold change /veh VPS37D (11726825_at) / RFU C10orf10 (11716522_x_at) / Fold change /veh C10orf10 (11716522_x_at) / RFU KIR2DL2 /// KIR2DL4 /// KIR2DL5A /// KIR2DL5B /// KIR2DS1 /// KIR2DS2 /// KIR2DS3 /// KIR2DS4 /// KIR3DL3 /// KIR3DL3 /// KIR3DS1 (11738374_at) / Fold change /veh KIR2DL2 /// KIR2DL4 /// KIR2DL5A /// KIR2DL5B /// KIR2DS1 /// KIR2DS2 /// KIR2DS3 /// KIR2DS4 /// KIR3DL3 /// KIR3DL3 /// KIR3DS1 (11738374_at) / RFU C1QL1 (11718748_at) / Fold change /veh C1QL1 (11718748_at) / RFU TMPRSS4 (11747572_a_at) / Fold change /veh TMPRSS4 (11747572_a_at) / RFU HAMP (11756126_x_at) / Fold change /veh HAMP (11756126_x_at) / RFU RNFT2 (11725882_a_at) / Fold change /veh RNFT2 (11725882_a_at) / RFU NR4A2 (11747474_a_at) / Fold change /veh NR4A2 (11747474_a_at) / RFU ABCC12 (11746883_a_at) / Fold change /veh ABCC12 (11746883_a_at) / RFU TMEM136 (11760407_x_at) / Fold change /veh TMEM136 (11760407_x_at) / RFU CLDN22 /// WWC2 (11732394_at) / Fold change /veh CLDN22 /// WWC2 (11732394_at) / RFU HLA-DPB1 (11760878_x_at) / Fold change /veh HLA-DPB1 (11760878_x_at) / RFU SPINT1 (11716480_a_at) / Fold change /veh SPINT1 (11716480_a_at) / RFU GAP43 (11754022_s_at) / Fold change /veh GAP43 (11754022_s_at) / RFU A4GNT (11735810_at) / Fold change /veh A4GNT (11735810_at) / RFU PRB3 (11715151_x_at) / Fold change /veh PRB3 (11715151_x_at) / RFU TUBB4B (11761932_at) / Fold change /veh TUBB4B (11761932_at) / RFU CAPN14 (11732068_a_at) / Fold change /veh CAPN14 (11732068_a_at) / RFU TMCC2 (11721928_a_at) / Fold change /veh TMCC2 (11721928_a_at) / RFU IRGQ (11745062_a_at) / Fold change /veh IRGQ (11745062_a_at) / RFU FAM174B (11720279_a_at) / Fold change /veh FAM174B (11720279_a_at) / RFU TMPRSS4 (11748680_a_at) / Fold change /veh TMPRSS4 (11748680_a_at) / RFU FAM212B (11763350_a_at) / Fold change /veh FAM212B (11763350_a_at) / RFU PLEKHG5 (11743358_a_at) / Fold change /veh PLEKHG5 (11743358_a_at) / RFU ZSCAN30 (11745921_a_at) / Fold change /veh ZSCAN30 (11745921_a_at) / RFU CMKLR1 (11741424_a_at) / Fold change /veh CMKLR1 (11741424_a_at) / RFU LOC101060620 /// MAPK8IP1 (11723275_at) / Fold change /veh LOC101060620 /// MAPK8IP1 (11723275_at) / RFU SPTSSB (11747773_x_at) / Fold change /veh SPTSSB (11747773_x_at) / RFU PRSS12 (11739890_at) / Fold change /veh PRSS12 (11739890_at) / RFU BIN1 (11741810_x_at) / Fold change /veh BIN1 (11741810_x_at) / RFU WNT11 (11732464_a_at) / Fold change /veh WNT11 (11732464_a_at) / RFU C10orf10 (11716521_a_at) / Fold change /veh C10orf10 (11716521_a_at) / RFU C5orf56 (11738089_at) / Fold change /veh C5orf56 (11738089_at) / RFU CYB561 (11721691_x_at) / Fold change /veh CYB561 (11721691_x_at) / RFU ANKRD19P (11752326_a_at) / Fold change /veh ANKRD19P (11752326_a_at) / RFU OR2T12 /// OR2T33 /// OR2T8 (11738714_s_at) / Fold change /veh OR2T12 /// OR2T33 /// OR2T8 (11738714_s_at) / RFU VCAN (11748164_a_at) / Fold change /veh VCAN (11748164_a_at) / RFU JSRP1 (11732532_at) / Fold change /veh JSRP1 (11732532_at) / RFU KRTAP10-11 (11738290_x_at) / Fold change /veh KRTAP10-11 (11738290_x_at) / RFU MYO3A (11730013_a_at) / Fold change /veh MYO3A (11730013_a_at) / RFU EBF3 (11725865_a_at) / Fold change /veh EBF3 (11725865_a_at) / RFU CAMK2N1 (11719241_x_at) / Fold change /veh CAMK2N1 (11719241_x_at) / RFU C5orf56 (11738088_a_at) / Fold change /veh C5orf56 (11738088_a_at) / RFU OLFML3 (11715873_a_at) / Fold change /veh OLFML3 (11715873_a_at) / RFU LOC100653217 /// NTM (11731650_a_at) / Fold change /veh LOC100653217 /// NTM (11731650_a_at) / RFU MAPK11 (11762145_a_at) / Fold change /veh MAPK11 (11762145_a_at) / RFU FIZ1 (11724087_x_at) / Fold change /veh FIZ1 (11724087_x_at) / RFU OASL (11726364_x_at) / Fold change /veh OASL (11726364_x_at) / RFU SOX15 (11748057_x_at) / Fold change /veh SOX15 (11748057_x_at) / RFU CD79A (11719716_a_at) / Fold change /veh CD79A (11719716_a_at) / RFU HIST1H1D (11736915_at) / Fold change /veh HIST1H1D (11736915_at) / RFU CASKIN2 (11723855_a_at) / Fold change /veh CASKIN2 (11723855_a_at) / RFU LOC730098 (11760151_x_at) / Fold change /veh LOC730098 (11760151_x_at) / RFU OR4N2 (11742367_at) / Fold change /veh OR4N2 (11742367_at) / RFU PRRT2 (11749266_a_at) / Fold change /veh PRRT2 (11749266_a_at) / RFU SNX32 (11753110_a_at) / Fold change /veh SNX32 (11753110_a_at) / RFU CDHR5 (11726645_a_at) / Fold change /veh CDHR5 (11726645_a_at) / RFU RCAN1 (11760418_a_at) / Fold change /veh RCAN1 (11760418_a_at) / RFU FAM167A (11723789_a_at) / Fold change /veh FAM167A (11723789_a_at) / RFU FAM26E (11764081_at) / Fold change /veh FAM26E (11764081_at) / RFU ISYNA1 (11749810_s_at) / Fold change /veh ISYNA1 (11749810_s_at) / RFU ACY1 (11761880_at) / Fold change /veh ACY1 (11761880_at) / RFU 11764098_at / Fold change /veh 11764098_at / RFU SAMD14 (11745864_x_at) / Fold change /veh SAMD14 (11745864_x_at) / RFU NPB (11741838_a_at) / Fold change /veh NPB (11741838_a_at) / RFU TMPRSS6 (11731388_a_at) / Fold change /veh TMPRSS6 (11731388_a_at) / RFU KRTAP10-2 (11738614_at) / Fold change /veh KRTAP10-2 (11738614_at) / RFU ARHGAP8 /// PRR5-ARHGAP8 (11727945_x_at) / Fold change /veh ARHGAP8 /// PRR5-ARHGAP8 (11727945_x_at) / RFU KRTAP5-7 /// NADSYN1 (11734609_at) / Fold change /veh KRTAP5-7 /// NADSYN1 (11734609_at) / RFU RASL12 (11751679_a_at) / Fold change /veh RASL12 (11751679_a_at) / RFU CDKN2B (11736163_a_at) / Fold change /veh CDKN2B (11736163_a_at) / RFU PRF1 (11729649_at) / Fold change /veh PRF1 (11729649_at) / RFU, ZNF638 /// ZNF638-IT1 / Fold change vs veh, ZNF638 /// ZNF638-IT1 / RFU, PANK3 / Fold change vs veh, PANK3 / RFU, SH3YL1 / Fold change vs veh, SH3YL1 / RFU, ZEB2 / Fold change vs veh, ZEB2 / RFU, NRIP1 / Fold change vs veh, NRIP1 / RFU, PTTG1IP / Fold change vs veh, PTTG1IP / RFU, CAPN2 / Fold change vs veh, CAPN2 / RFU, MED14 / Fold change vs veh, MED14 / RFU, SNORA58 / Fold change vs veh, SNORA58 / RFU, C1orf63 / Fold change vs veh, C1orf63 / RFU, LRRFIP1 / Fold change vs veh, LRRFIP1 / RFU, NDUFAF7 / Fold change vs veh, NDUFAF7 / RFU, SLC12A2 / Fold change vs veh, SLC12A2 / RFU, IBTK / Fold change vs veh, IBTK / RFU, ESF1 / Fold change vs veh, ESF1 / Fold change vs veh, TMEM50B / RFU, TAOK1 / Fold change vs veh, TAOK1 / RFU, ACBD3 / Fold change vs veh, ACBD3 / RFU, TMA16 / Fold change vs veh, TMA16 / RFU, RWDD3 / Fold change vs veh, RWDD3 / RFU, BCAT1 / Fold change vs veh, BCAT1 / RFU, EDEM3 / Fold change vs veh, EDEM3 / RFU, TMEM33 / Fold change vs veh, TMEM33 / RFU, WDR75 / Fold change vs veh, WDR75 / RFU, AHCTF1 / Fold change vs veh, AHCTF1 / RFU, TFRC / Fold change vs veh, TFRC / RFU, ZDHHC17 / Fold change vs veh, ZDHHC17 / RFU, NOM1 / Fold change vs veh, NOM1 / RFU, ARL8B / Fold change vs veh, ARL8B / RFU, ZBTB11 / Fold change vs veh, ZBTB11 / RFU, TAMM41 / Fold change vs veh, TAMM41 / RFU, KIAA1704 /// LOC100996395 / Fold change vs veh, KIAA1704 /// LOC100996395 / RFU, ING1 / Fold change vs veh, ING1 / RFU, TRMT61B / Fold change vs veh, TRMT61B / RFU, FUBP3 / Fold change vs veh, FUBP3 / RFU, TP53 / Fold change vs veh, TP53 / RFU, TNKS2 / Fold change vs veh, TNKS2 / RFU, ZFP14 / Fold change vs veh, ZFP14 / RFU, ACTR2 / Fold change vs veh, ACTR2 / RFU, PPP3R1 / Fold change vs veh, PPP3R1 / RFU, PIK3R1 / Fold change vs veh, PIK3R1 / RFU, HNRNPA1 / Fold change vs veh, HNRNPA1 / RFU, RNF170 / Fold change vs veh, RNF170 / RFU, ZNF28 / Fold change vs veh, ZNF28 / RFU, RNGTT / Fold change vs veh, RNGTT / RFU, OGT / Fold change vs veh, OGT / RFU, BRD1 / Fold change vs veh, BRD1 / RFU, MARS / Fold change vs veh, MARS / RFU, ZNF655 / Fold change vs veh, ZNF655 / RFU, FAHD1 / Fold change vs veh, FAHD1 / RFU, BDP1 / Fold change vs veh, BDP1 / RFU, LRRCC1 / Fold change vs veh, LRRCC1 / RFU, ARID1A / Fold change vs veh, ARID1A / RFU, ZNF146 / Fold change vs veh, ZNF146 / RFU, ZNF330 / Fold change vs veh, ZNF330 / RFU, GPN3 / Fold change vs veh, GPN3 / RFU, C9orf123 / Fold change vs veh, C9orf123 / RFU, N4BP2L2 / Fold change vs veh, N4BP2L2 / RFU, ARFIP1 / Fold change vs veh, ARFIP1 / RFU, FAM179B / Fold change vs veh, FAM179B / RFU, BCL10 / Fold change vs veh, BCL10 / RFU, UHRF1BP1L / Fold change vs veh, UHRF1BP1L / RFU, BET1 / Fold change vs veh, BET1 / RFU, CNOT2 / Fold change vs veh, CNOT2 / RFU, ZNF268 / Fold change vs veh, ZNF268 / Fold change vs veh, ZNF507 / RFU, DGCR2 / Fold change vs veh, DGCR2 / RFU, WDSUB1 / Fold change vs veh, WDSUB1 / Fold change vs veh, HSP90B1 /// MIR3652 / RFU, ADSS / Fold change vs veh, ADSS / RFU, GK / Fold change vs veh, GK / RFU, ZNF148 / Fold change vs veh, ZNF148 / RFU, TAF9 / Fold change vs veh, TAF9 / RFU, SLC1A5 / Fold change vs veh, SLC1A5 / RFU, SLMO2 / Fold change vs veh, SLMO2 / RFU, ABCC4 / Fold change vs veh, ABCC4 / RFU, LOC101060439 /// RAP1B / Fold change vs veh, LOC101060439 /// RAP1B / RFU, RFX7 / Fold change vs veh, RFX7 / RFU, GTPBP10 / Fold change vs veh, GTPBP10 / RFU, CNEP1R1 / Fold change vs veh, CNEP1R1 / RFU, BIVM-ERCC5 /// ERCC5 / Fold change vs veh, BIVM-ERCC5 /// ERCC5 / RFU, ILF3 / Fold change vs veh, ILF3 / RFU 11762660_at / Fold change /veh 11762660_at / RFU VCAN (11757783_s_at) / Fold change /veh VCAN (11757783_s_at) / RFU DDX43 (11728927_at) / Fold change /veh DDX43 (11728927_at) / RFU KRT8 (11758188_x_at) / Fold change /veh KRT8 (11758188_x_at) / RFU NKD1 (11759106_at) / Fold change /veh NKD1 (11759106_at) / RFU SRD5A1 (11742802_a_at) / Fold change /veh SRD5A1 (11742802_a_at) / RFU TPSAB1 /// TPSB2 (11721975_s_at) / Fold change /veh TPSAB1 /// TPSB2 (11721975_s_at) / RFU GSTM3 (11746129_a_at) / Fold change /veh GSTM3 (11746129_a_at) / RFU IL23R (11737362_x_at) / Fold change /veh IL23R (11737362_x_at) / RFU TMEM51 (11727254_a_at) / Fold change /veh TMEM51 (11727254_a_at) / RFU PIWIL2 (11732686_x_at) / Fold change /veh PIWIL2 (11732686_x_at) / RFU ORM1 (11744905_x_at) / Fold change /veh ORM1 (11744905_x_at) / RFU CCDC152 (11743942_at) / Fold change /veh CCDC152 (11743942_at) / RFU ECM1 (11717891_a_at) / Fold change /veh ECM1 (11717891_a_at) / RFU IL23R (11748794_a_at) / Fold change /veh IL23R (11748794_a_at) / RFU TNFAIP8L3 (11732012_x_at) / Fold change /veh TNFAIP8L3 (11732012_x_at) / RFU MBOAT4 (11741988_at) / Fold change /veh MBOAT4 (11741988_at) / RFU 11764193_at / Fold change /veh 11764193_at / RFU TMEM53 (11763286_at) / Fold change /veh TMEM53 (11763286_at) / RFU MAGEB2 (11727129_at) / Fold change /veh MAGEB2 (11727129_at) / RFU TMEM200A (11744735_a_at) / Fold change /veh TMEM200A (11744735_a_at) / RFU CCDC152 (11751479_a_at) / Fold change /veh CCDC152 (11751479_a_at) / RFU FAM211A (11726209_a_at) / Fold change /veh FAM211A (11726209_a_at) / RFU RGS16 (11746705_a_at) / Fold change /veh RGS16 (11746705_a_at) / RFU VCAN (11755009_s_at) / Fold change /veh VCAN (11755009_s_at) / RFU RHOB (11743442_s_at) / Fold change /veh RHOB (11743442_s_at) / RFU RGS16 (11720943_a_at) / Fold change /veh RGS16 (11720943_a_at) / RFU RGS16 (11720944_at) / Fold change /veh RGS16 (11720944_at) / RFU, VPS4B / Fold change vs veh, VPS4B / RFU, CREB1 / Fold change vs veh, CREB1 / RFU, DNAJC13 / Fold change vs veh, DNAJC13 / RFU, GNAQ / Fold change vs veh, GNAQ / RFU, CDK5R1 / Fold change vs veh, CDK5R1 / RFU, ZRANB3 / Fold change vs veh, ZRANB3 / RFU, CUL4A / Fold change vs veh, CUL4A / RFU, CCNY / Fold change vs veh, CCNY / RFU, UFL1 / Fold change vs veh, UFL1 / RFU, COG3 / Fold change vs veh, COG3 / RFU, DIAPH2 / Fold change vs veh, DIAPH2 / RFU, SKA2 / Fold change vs veh, SKA2 / RFU, AFF3 / Fold change vs veh, AFF3 / RFU, LMF1 / Fold change vs veh, LMF1 / RFU, IPO11 / Fold change vs veh, IPO11 / RFU, DFFB / Fold change vs veh, DFFB / RFU, FOXP1 / Fold change vs veh, FOXP1 / RFU, CARD8 / Fold change vs veh, CARD8 / RFU, STRN3 / Fold change vs veh, STRN3 / RFU, ADK / Fold change vs veh, ADK / RFU, RASSF2 / Fold change vs veh, RASSF2 / RFU, WIPF1 / Fold change vs veh, WIPF1 / RFU, LARP1B / Fold change vs veh, LARP1B / RFU, RASA1 / Fold change vs veh, RASA1 / RFU, RB1 / Fold change vs veh, RB1 / RFU, PPFIA1 / Fold change vs veh, PPFIA1 / RFU, MAT2A / Fold change vs veh, MAT2A / RFU, CCT5 / Fold change vs veh, CCT5 / RFU, WDR92 / Fold change vs veh, WDR92 / RFU, CUX1 / Fold change vs veh, CUX1 / RFU, TTC7A / Fold change vs veh, TTC7A / RFU, TMEM135 / Fold change vs veh, TMEM135 / RFU, DEPTOR / Fold change vs veh, DEPTOR / RFU, CPM / Fold change vs veh, CPM / RFU, DNAJB6 / Fold change vs veh, DNAJB6 / RFU, CACNA2D3 / Fold change vs veh, CACNA2D3 / RFU, DTX4 / Fold change vs veh, DTX4 / RFU, TFCP2 / Fold change vs veh, TFCP2 / RFU, GMCL1 /// GMCL1P1 / Fold change vs veh, GMCL1 /// GMCL1P1 / RFU, AEBP2 / Fold change vs veh, AEBP2 / RFU, SNHG1 /// SNORD22 /// SNORD25 /// SNORD26 /// SNORD27 /// SNORD28 /// SNORD29 /// SNORD31 / Fold change vs veh, SNHG1 /// SNORD22 /// SNORD25 /// SNORD26 /// SNORD27 /// SNORD28 /// SNORD29 /// SNORD31 / Fold change (Aza/veh), C12orf56 (ProbeSet 11735607_a_at) / Fold change (ACY-1035/veh), C12orf56 (ProbeSet 11735607_a_at) / Fold change (Aza/veh), FGFR1OP (ProbeSet 11751329_s_at) / Fold change (ACY-1035/veh), FGFR1OP (ProbeSet 11751329_s_at) / Fold change (Aza/veh), VPS36 (ProbeSet 11739960_a_at) / Fold change (ACY-1035/veh), VPS36 (ProbeSet 11739960_a_at) / RFU SYPL1 (11715823_x_at) / Fold change /veh SYPL1 (11715823_x_at) / RFU IGFBP7 (11715501_s_at) / Fold change /veh IGFBP7 (11715501_s_at) / RFU REEP3 (11722064_at) / Fold change /veh REEP3 (11722064_at) / RFU IGLL1 (11728026_x_at) / Fold change /veh IGLL1 (11728026_x_at): dose or concentration left out as unconfirmed
# Details: ProbeSet 11732306_x_at; LIST D
smiles,measurement,value
Nc1ccc(-c2cccs2)cc1NC(=O)c1ccc2c(c1)cc(C1CC1)n2CCN1CCOCC1 [ACY-1035],"RFU, CREB1",287.35 RFU
